# Measured values published in the supplement of paper PMC10307832.
# Tests used:
# Assay in all cases: relative viability (nuclei count vs DMSO), 5 days (fraction); higher = more cells survive
# [1] = compound: CN(C)CC1=CC(=CC=C1)N=C(C2=CC=CC=C2)C3=C(NC4=C3C=CC(=C4)C(=O)N(C)C)O + CC(C)C[C@H](NC(=O)[C@H](Cc1ccccc1)NC(=O)c1cnccn1)B(O)O [Bortezomib] (partner 0.002 µM)
# In short: (§1)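 Values are medians from duplicate plates. Each reflects relative viability, defined as the nuclei count of treated wells over that of vehicle wells. Lung cancer cell lines in 1536-well plates were pin-tool dosed one day after seeding with one drug alone or with a fixed anchor-drug dose plus five library-drug doses (not always all listed) in √10 steps, then fixed, stained and imaged at 4× after 5 days.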
# [2] = compound: CN(C)CC1=CC(=CC=C1)N=C(C2=CC=CC=C2)C3=C(NC4=C3C=CC(=C4)C(=O)N(C)C)O + Cc1nc(NC(=O)N2CCC[C@H]2C(N)=O)sc1-c1ccnc(C(C)(C)C(F)(F)F)c1 [Alpelisib] (partner 2 µM)
# In short: as §1
# [3] = compound: CN(C)CC1=CC(=CC=C1)N=C(C2=CC=CC=C2)C3=C(NC4=C3C=CC(=C4)C(=O)N(C)C)O + O=C(c1cc(Cc2n[nH]c(=O)c3ccccc23)ccc1F)N1CCN(C(=O)C2CC2)CC1 [Olaparib] (partner 8 µM)
# In short: as §1
# [4] = compound: CN(C)CC1=CC(=CC=C1)N=C(C2=CC=CC=C2)C3=C(NC4=C3C=CC(=C4)C(=O)N(C)C)O + Nc1nc2[nH]cc(CCc3ccc(C(=O)N[C@@H](CCC(=O)O)C(=O)O)cc3)c2c(=O)[nH]1 [Pemetrexed] (partner 0.2 µM)
# In short: as §1
Cell Line,relative viability ([1]; first compound 0.08 µM),relative viability ([1]; first compound 0.253 µM),relative viability ([1]; first compound 0.8 µM),relative viability ([1]; first compound 2.53 µM),relative viability ([1]; first compound 8 µM),relative viability ([2]; first compound 0.08 µM),relative viability ([2]; first compound 0.253 µM),relative viability ([2]; first compound 0.8 µM),relative viability ([2]; first compound 2.53 µM),relative viability ([2]; first compound 8 µM),relative viability ([3]; first compound 0.08 µM),relative viability ([3]; first compound 0.253 µM),relative viability ([3]; first compound 0.8 µM),relative viability ([3]; first compound 2.53 µM),relative viability ([3]; first compound 8 µM),relative viability ([4]; first compound 0.08 µM),relative viability ([4]; first compound 0.253 µM),relative viability ([4]; first compound 0.8 µM),relative viability ([4]; first compound 2.53 µM),relative viability ([4]; first compound 8 µM)
HCC-78,0.596,0.458,0.468,0.512,0.405,0.364,0.324,0.356,0.363,0.318,0.599,0.816,0.776,0.742,0.862,0.639,0.873,0.857,0.918,0.859
HCC-366,0.949,1.01,1.03,0.906,0.9,0.397,0.386,0.42,0.393,0.344,0.339,0.371,0.437,0.347,0.304,0.141,0.17,0.265,0.164,0.25
HCC-827,1.08,1.03,1.08,1.08,1.05,1.06,1.04,0.93,0.923,0.875,0.615,0.65,0.67,0.623,0.685,0.266,0.241,0.25,0.229,0.269
HOP-62,0.875,1.25,0.746,0.801,0.72,0.995,1.13,0.93,1.03,0.973,0.373,0.327,0.361,0.251,0.504,0.264,0.248,0.438,0.344,0.322
LC-2-ad,1.08,1.1,1.03,0.979,0.995,0.896,0.86,0.857,0.848,0.672,0.663,0.771,0.729,0.723,0.827,0.275,0.263,0.275,0.288,0.277
LCLC-97TM1,0.528,0.942,0.504,0.605,1.35,0.286,0.203,0.293,0.324,0.343,0.485,0.392,0.442,0.391,0.433,0.167,0.198,0.187,0.183,0.177
LCLC-103H,1.14,1.09,0.976,0.91,0.979,0.987,0.923,0.938,0.876,0.98,0.751,0.782,0.773,0.775,0.749,0.47,0.442,0.555,0.458,0.456
LOU-NH91,0.493,0.472,0.447,0.533,0.472,0.743,0.72,0.577,0.718,0.696,0.931,0.867,0.817,0.906,0.89,0.383,0.367,0.465,0.349,0.465
LU99A,1.13,1.21,1.15,1.09,0.911,0.486,0.579,0.497,0.559,0.364,0.263,0.331,0.254,0.264,0.247,0.171,0.173,0.228,0.156,0.185
LXF-289,1,0.888,0.993,0.927,0.939,1.04,1,0.966,0.971,0.941,1.11,1.03,1.03,0.993,1.03,0.937,0.836,0.904,0.885,0.827
NCI-H23,1.08,1.02,1.18,0.951,0.833,0.705,0.607,0.754,0.6,0.573,,0.284,0.365,0.316,0.345,,0.718,0.962,0.776,0.596
NCI-H322M,1.25,1.14,1.19,1.16,1.26,0.768,0.714,0.695,0.797,0.708,0.68,0.753,0.679,0.645,0.661,0.556,0.6,0.612,0.565,0.527
NCI-H441,0.572,0.449,0.538,0.511,0.331,0.717,0.761,0.642,0.834,0.495,0.728,0.588,0.627,0.461,0.499,0.264,0.274,0.237,0.258,0.291
NCI-H460,1.22,1.05,1.1,0.974,1.06,0.521,0.454,0.467,0.401,0.229,0.46,0.447,0.433,,0.428,0.0639,0.0794,0.0612,0.0522,0.0565
